# Assay results reported in patent US4345938A, “Herbicidal 2-haloacetanilides” (Monsanto Company, priority 1980, dated 1982).
# Legend:
# Type in all cases: in vivo
# Canada Thistle = test: Pre-emergent herbicidal test, Canada Thistle; details: Table I; note: ranges in brackets are in %
# Text: A good grade of top soil is placed in aluminum pans and compacted to a depth of three-eights to one-half inch from the top of the pan. On the top of the soil is placed a number of seeds or vegetative propagules of various plant species. The soil required to level fill the pans after seeding or adding vegetative propagules is weighted into a pan. The soil and a known amount of the active ingredient applied in a solvent or as a wettable powder suspension are thoroughly mixed, and used to cover the prepared pans. After treatment, the pans are moved into a greenhouse bench where they are watered by subirrigation as needed to give adequate moisture for germination and growth.
# Approximately 2 weeks after seeding and treating, the plants were observed and the results recorded. The herbicidal rating was obtained by means of a fixed scale based on the percent injury of each plant species. The ratings are defined as follows: […]
# direct-seeded rice = test: Field tests in direct-seeded rice; details: less tolerant than transplant rice
# Text: The herbicides of this invention may be used singly, as mixtures with other herbicides and may be used in sequential use with other herbicides. For example, treatments of a transplant rice crop with the herbicides of this invention may be followed with treatments of other herbicides or mixtures such as S-4-chlorobenzyl diethylthiocarbamate (common name "benthiocarb") plus 2-chloro-4,6-di(ethylamino)-1,3,5-triazine (common name "simazine") or 3-isopropyl-(1H)-benzo-2,1,3-thiadiazine-4-one-2,2-dioxide (common name "bentazone") or 4-(4-chloro-2-methylphenoxy)butyric acid (common name "MCPB"). […] However, because of the high unit activity of compounds according to this invention against annual and perennial weeds associated with rice, it is within the purview of this invention to combine these herbicides with safeners or antidotes, to enhance the tolerance of both transplanted and direct-seeded rice thereto. Exemplary safeners contemplated as useful with the herbicides of this invention include the phenylglyoxylonitrile-2-oxime cyanomethyl ether described in U.S. Pat. No. 4,152,137, 2,4-disubstituted-5-thiazolecarboxylic acids and derivatives thereof as disclosed in the assignee's copending U.S. Ser. No. 906,183 and other known safeners for 2-haloacetanilides in rice.
# redroot pigweed = test: Sugarbeet greenhouse test, RRP; details: in sugarbeets
# Text: (§1) In the discussion of data below, occasional reference is made to herbicide application rates symbolized as "GR15 " and "GR85 "; these rates are given in kilograms per hectare (kg/ha) which are convertible into pounds per acre (lbs/A) by dividing the kg/ha rate by 1.12.
# (§2) A further guide to the effectiveness of a chemical as a selective herbicide is the "selectivity factor" ("SF") for a herbicide in given crops and weeds. The selectivity factor is a measure of the relative degree of crop safety and weed injury and is expressed in terms of the GR15 /GR85 ratio, i.e., the GR15 rate for the crop divided by the GR85 rate for the weed, both rates in kg/ha (lb/A.)
# (§3) In further tests in the greenhouse, the compound of Example 2 was tested for its activity against annual weeds in sugarbeets at test rates within the range of 0.07 to 1.12 kg/ha (0.0625 to 1.0 lb/A). The GR15 and GR85 rates for sugarbeets and the various weeds are shown in Table VI; the selectivity factors for the herbicide against the weeds in sugarbeets are shown in parentheses below the weeds; "NS" means non-selective within the test limits. The following abbreviations are used in the table: barnyardgrass (BYG), wild oats (WO), downy brome (DB); redroot pigweed (RRP), blackgrass (BG), large crabgrass (LCG) and yellow foxtail (YFT).
# Barnyardgrass = test: Sugarbeet greenhouse test, BYG; details: in sugarbeets
# Text: as §1, §2, §3
# wild oats = test: Sugarbeet greenhouse test, WO; details: in sugarbeets
# Text: as §1, §2, §3
# Downy Brome = test: Sugarbeet greenhouse test, DB; details: in sugarbeets
# Text: as §1, §2, §3
# large crabgrass = test: Sugarbeet greenhouse test, LCG; details: in sugarbeets
# Text: as §1, §2, §3
smiles,measurement,setting,value
"CCCCOc1cccc(CC)c1N(C)C(=O)CCl [Example 1, N-methyl-2'-n-butoxy-6'-ethyl-2-chloroacetanilide]","Rating, Canada Thistle",Canada Thistle; 5.6 kg/h,3 (75-100)
same,"Rating, Canada Thistle",Canada Thistle; 11.2 kg/h,3 (75-100)
same,efficacy in direct-seeded rice,direct-seeded rice,less-efficacious
"CCCCOc1cccc(CC)c1N(CC)C(=O)CCl [Example 2, N-ethyl-2'-n-butoxy-6'-ethyl-2-chloroacetanilide]","GR85 Rate, RRP",redroot pigweed,> 1.12 Kg/Ha
same,"selectivity factor, RRP",redroot pigweed,NS (non-selective within the test limits)
same,"GR85 Rate, BYG",Barnyardgrass,< 0.07 Kg/Ha
same,"selectivity factor, BYG",Barnyardgrass,> 8.0
same,"GR85 Rate, WO",wild oats,0.28 Kg/Ha
same,"selectivity factor, WO",wild oats,2.0
same,"GR85 Rate, DB",Downy Brome,0.14 Kg/Ha
same,"selectivity factor, DB",Downy Brome,4.0
same,"GR85 Rate, LCG",large crabgrass,0.07 Kg/Ha
same,"selectivity factor, LCG",large crabgrass,8.0
